# Reference: PubChem BioAssay (NCI)
#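 A five-concentration, 48-hour dose response in 96-well plates underlies each endpoint, interpolated linearly between surrounding concentrations. GI50 is the concentration that inhibits growth by half. The concentration for full growth arrest is given as TGI.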
# Experiments:
# Assay in all cases: DTP human tumour cell line panel, 48 h
# [1] = tested on: SF-539 CNS
# [2] = tested on: SW-620 colon
# [3] = tested on: DU-145 prostate
# [4] = tested on: UACC-62 melanoma
# [5] = tested on: K-562 leukemia
# [6] = tested on: RPMI-8226 leukemia
# [7] = tested on: M14 melanoma
# [8] = tested on: NCI-H460 lung
# [9] = tested on: MCF7 breast
# [10] = tested on: EKVX NSCLC
Compound,GI50 [1],TGI [1],GI50 [2],TGI [2],GI50 [3],TGI [3],GI50 [4],TGI [4],GI50 [5],TGI [5],GI50 [6],GI50 [7],TGI [7],GI50 [8],TGI [8],GI50 [9],TGI [9],GI50 [10],TGI [10],TGI [6]
CCCCc1ccc2nc(NC(=O)OC)[nH]c2c1,0.0366 µM,0.294 µM,0.0325 µM,> 60.5 µM,0.0406 µM,0.278 µM,0.0451 µM,> 59.1 µM,0.0337 µM,> 100 µM,0.0331 µM,0.0351 µM,0.69 µM,0.0378 µM,6.17 µM,0.0343 µM,> 52.1 µM,0.855 µM,> 100 µM,–
CCOP1(=O)OCC2OC(n3cnc4c(N)ncnc43)C(O)C2O1 (stereo not drawn),–,> 100 µM,–,> 100 µM,–,> 100 µM,–,> 100 µM,–,> 100 µM,–,–,> 100 µM,–,> 100 µM,–,> 100 µM,–,> 100 µM,> 100 µM
CC(=O)OCC1OC(n2cc(F)c(=O)[nH]c2=O)C(OC(C)=O)C1OC(C)=O (stereo not drawn),–,52.1 µM,–,> 100 µM,–,> 100 µM,–,> 100 µM,–,> 100 µM,–,–,> 100 µM,–,> 100 µM,–,> 45.3 µM,–,> 100 µM,> 100 µM
Cc1ncc(C(=O)Nc2ccc(CN3CCN(C)CC3)c(C(F)(F)F)c2)cc1C#Cc1c(N)ncc2ccc(C#N)cc12,1.14 µM,8.06 µM,0.661 µM,10.3 µM,0.976 µM,7.43 µM,0.0362 µM,6.1 µM,0.005 µM,5.3 µM,1.21 µM,0.029 µM,0.659 µM,4.05 µM,12.1 µM,0.693 µM,11.4 µM,0.54 µM,> 22.8 µM,9.18 µM
CCc1cc(C(N)=O)ccc1-n1nc(C(C)C)c2c(-n3cnc(-c4cnn(C)c4)c3)ccnc21,3.08 µM,> 100 µM,0.536 µM,> 100 µM,0.604 µM,> 100 µM,1.18 µM,> 35.4 µM,0.867 µM,> 100 µM,3.76 µM,1.22 µM,> 100 µM,0.566 µM,> 100 µM,0.443 µM,> 100 µM,16.3 µM,> 100 µM,> 100 µM
COc1ccc(C(=O)/C=C/c2ccc(Cl)cc2)cc1S(N)(=O)=O,1.6 µM,3.3 µM,1.76 µM,3.85 µM,3.43 µM,13.2 µM,4.88 µM,17.5 µM,0.568 µM,> 100 µM,2.61 µM,2.13 µM,5.68 µM,2.58 µM,6.39 µM,1.3 µM,6.77 µM,4.56 µM,18.4 µM,6.53 µM
Cn1cc(-c2ccc3cc(-c4ccc(CC(=O)Nc5cc(C(C)(C)C)nn5C)cc4)cnc3c2)cn1,0.112 µM,12.4 µM,0.324 µM,> 100 µM,0.17 µM,> 100 µM,0.179 µM,> 100 µM,0.347 µM,> 100 µM,0.254 µM,0.144 µM,> 100 µM,0.165 µM,> 100 µM,0.496 µM,> 100 µM,0.282 µM,> 100 µM,1.78 µM
COc1ccc(NC(=O)c2ccc(NC3=C(Cl)C(=O)N(Cc4ccccc4)C3=O)cc2)cc1,3.29 µM,11.8 µM,4.83 µM,> 100 µM,5 µM,24.3 µM,16.3 µM,36.8 µM,4.02 µM,64.8 µM,2.38 µM,9.42 µM,28.6 µM,53.1 µM,> 100 µM,7.9 µM,> 100 µM,32.1 µM,> 100 µM,8.06 µM
Clc1ccc(Cl)c(N/N=C\c2c[nH]c3ccccc23)c1,8.16 µM,21 µM,10.3 µM,24.6 µM,10.7 µM,22.6 µM,9.92 µM,22.6 µM,1.83 µM,17.7 µM,6.16 µM,12.8 µM,25.4 µM,> 100 µM,> 100 µM,> 100 µM,> 100 µM,2.36 µM,15.5 µM,26.1 µM
Cc1ccc(CCC(=O)Nc2ncc(Cc3cc(Cl)ccc3Cl)s2)o1,0.218 µM,0.712 µM,0.0694 µM,> 100 µM,0.351 µM,> 32.9 µM,0.24 µM,> 100 µM,0.0401 µM,> 100 µM,0.335 µM,0.091 µM,3.97 µM,0.233 µM,–,0.0439 µM,> 100 µM,0.466 µM,> 100 µM,61.1 µM
Cc1nc2c(cnn2-c2ccnc3c(C(F)(F)F)cccc23)c(=O)o1,> 100 µM,> 100 µM,> 100 µM,> 100 µM,> 100 µM,> 100 µM,93.9 µM,> 100 µM,> 100 µM,> 100 µM,> 100 µM,–,–,> 100 µM,> 100 µM,> 100 µM,> 100 µM,> 100 µM,> 100 µM,> 100 µM
COC1CC(OC2OC(CO)C(O)C(O)C2O)/C(=C\C#N)C(O)C1OC (stereo not drawn),–,> 100 µM,–,> 100 µM,–,> 100 µM,–,> 100 µM,–,–,–,–,> 100 µM,–,> 100 µM,–,> 100 µM,–,> 100 µM,> 100 µM
Cc1cc2c(-c3nc4ccccc4[nH]3)c(O)c(O)cc2c(O)c1-c1c(C)cc2c(-c3nc4ccccc4[nH]3)c(O)c(O)cc2c1O,0.0344 µM,0.494 µM,0.0209 µM,> 22 µM,0.0205 µM,10.1 µM,–,–,0.0199 µM,> 50 µM,0.0323 µM,0.08 µM,> 50 µM,0.00751 µM,0.112 µM,0.018 µM,6.84 µM,0.0315 µM,> 28.9 µM,22.3 µM
